We go through 2 compounds from patent US9782411B2, “{4-[5-(3-chloro-phenoxy)-oxazolo[5,4-d]pyrimidin-2-yl]-2,6-dimethyl-phenoxy}-acetic acid for use in the prevention or treatment of acute kidney injury” (Sanofi, priority 2013, dated 2017).

As a reminder, the EC50 is the concentration giving half of the maximal effect.

The target in assay [1] is T1, S1P1 (Homo sapiens, UniProt P21453). In words: FLIPR calcium assay, ChemiScreen cells (GPCRProfiler, Millipore). The class given is cell-based. The note with it: ChemiScreen cells over-expressing human S1P1; 0% proteins in assay media; read-out: EC50, FLIPR, Chem cells.
In a further assay the target is S1P3 (Homo sapiens, UniProt Q99500). Put plainly: PathHunter β-arrestin assay, S1P3. The assay is classed as cell-based. The note with it: 0.5% FBS. How it is done: (§1) The PathHunter® β-Arrestin Assay from DiscoverX was used to determine the EC50 activity of compound A, BAF-312 and fingolimod on S1P1, S1P2, S1P3, S1P4 or S1P5 receptors. The compounds were tested in assay medium containing 0.5% FBS.

A further assay concerns the target T2, S1P4 (Homo sapiens, UniProt O95977).
T2 sequence (O95977 1-384): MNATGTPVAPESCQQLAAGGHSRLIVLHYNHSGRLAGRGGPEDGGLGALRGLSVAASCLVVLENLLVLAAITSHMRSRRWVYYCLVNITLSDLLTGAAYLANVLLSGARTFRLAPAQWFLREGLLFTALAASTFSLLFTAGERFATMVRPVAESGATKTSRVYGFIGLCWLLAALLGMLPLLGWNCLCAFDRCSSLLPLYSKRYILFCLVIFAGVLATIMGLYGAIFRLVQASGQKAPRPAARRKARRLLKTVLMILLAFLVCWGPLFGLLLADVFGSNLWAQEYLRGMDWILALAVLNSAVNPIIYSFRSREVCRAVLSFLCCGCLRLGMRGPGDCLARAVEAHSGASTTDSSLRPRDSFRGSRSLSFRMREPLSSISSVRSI
In words: PathHunter β-arrestin assay, S1P4. The assay is classed as cell-based. Particulars: 0.5% FBS. The method, then:
as §1

The subject of another assay is Fischer rats. In words: Rat model of renal ischemia reperfusion (I/R) injury. The assay is classed as in vivo. Particulars: for AKI protection (FIG. 3-D): Fischer rats, compound A at 3 mg/kg. How it is done: Male Fischer rats (n=3-9, 250 to 300 g) (Charles River Laboratory, France) received oral administration of compound A at 0.3, 1 and 3 mg/kg or BAF-312 at 3, 10 and 30 mg/kg or vehicle article (methylcellulose 0.6%—tween 80 0.5% in water) within a volume of administration of 2 mL/kg, one hour before renal ischemia. In a second set of experiment, compound A was administrated b.i.d. during 5 days to assess potential tachyphylaxia. Briefly, animals were subjected to sham surgery (i.e. laparotomy, renal arteries isolation) or to 25 min bilateral renal artery occlusion under pentobarbital (50 mg/kg i.p.) anaesthesia. Body temperature (37° C.-38° C.) and hydration (peritoneal injection of physiological serum) were carefully monitored to standardize the surgery procedure and limit inter-individual variability. At the end of the ischemic period, kidneys were reperfused by removing clamps, and the quality of reperfusion was controlled before suturing muscular and cutaneous plan (animals with poor reperfusion were excluded immediately). Twenty-four hours later, blood and kidneys were collected. Blood was centrifuged (3000 g, 10 min) and heparinised plasma frozen for creatinine evaluation using a biochemical analyser (P400, Horiba, France). One kidney was frozen for western blot analyses for tissue albumin (anti-albumin, Santa Cruz) and tissue HSP70 (monoclonal anti-HSP70 antibody from Santa Cruz #SC32239) evaluation and the second one fixed (10% neutral-buffered formalin) and paraffin-embedded for histological analyses on 5 μm-thick slice (acute tubular necrosis quantification using classical hematoxylin-erythrosin-Saffran, modified Masson's trichrome and periodic acid-Schiff associated blue alcine) and immunohistochemistry analyses (macrophage staining with monoclonal anti-CD68 antibody from Acris #BM4000, and capillary staining with monoclonal ant-PECAM antibody from Santa Cruz #SC1506, using Ventana robot, VMS Inc.). […] CD68 and PECAM immunolabeling are expressed as percentage of positive pixel count (Aperio algorithm) on whole section. Plasma creatinine is expressed as mean+/−s.e.m.

For assay [2], the system named is ICAM-I, VCAM-I, and P/E selectins. Put plainly: TNFα-induced over-expression of adhesion molecules assay. The note with it: three human endothelial cell types (HPAEC, HUVEC and HRGEC). The class given is cell-based. The method, then:
ICAM-1, VCAM-1 and P/E-selectins expression were measured in HUVEC by ELISA. HUVEC cells were seeded in 96 multiwell plates at 25×10^3 cells per well under the volume of 100 μL in EGM2 medium (Lonza) and allowed to adhere for 24 h. After 24 h, complete medium was replaced by quiescent medium (EGM2 without supplements and serum) for 3 hours. Following this, cells were pre-treated with compound A or BAF-312 (1-30 μM) for 18 h. Cells were then treated with TNF-α (3 ng/mL) in growth-factors free medium for an additional 6 h period. Medium was removed and cells were washed and fixed with 100 μL RLC2 solution per well (Alphelys #01-RLC2-RTU30) for 20 min at 4° C. Fixed cells were washed twice with 100 μL HBSS before addition of antibodies anti-ICAM-1 (#BBA3, R&D System), anti-VCAM-1 (#BBA5, R&D System) and anti-P/E-Selectins (#BBA1, R&D system) for 1 hour. Following extensive wash, anti-mouse IgG HRP (#NA931, Amersham) was added for 2 hours. Optical density was read at 450 nm (Envision) after washing and addition of HRP substrate (OPD, Sigma #P9187). Results are expressed as percent inhibition of TNF-α-induced adhesion molecule expression.

Assay [3] has as its target T1, S1P1. In words: Impedance assay in HUVEC. The note with it: 2% FBS. Further details: host or cells: HUVEC (primary). The assay is classed as cell-based. How it is done: On day 1, primary cells were seeded into 96-well e-plates pre-coated with collagen-I with 20,000 cells per well. […] After incubation with the S1PR agonists, the cells were carefully washed twice with medium followed by a 5.5 h recovery period. Then the effect of the preceding 1st stimulation on receptor desensitization was assessed using a 2nd stimulation of increasing S1P concentrations (0.1, 1 and 10 μM) and measuring the resulting impedance. All measurements were done at least in triplicates. […] Results are expressed in arbitrary impedance unit as mean+/−s.e.m.

Assay [4] addresses T1, S1P1. Put plainly: PathHunter activated GPCR internalization assay, CHO. The assay is classed as cell-based. Details: host or cells: CHO (PathHunter). The note with it: 0.5% FBS. The method, then:
The compounds were tested in assay medium containing 0.5% FBS.

Assay [5] addresses T1, S1P1. Put plainly: Hit Hunter cAMP assay, CHO. Details: host or cells: CHO (PathHunter). The class given is cell-based. Particulars: 0.5% FBS. How it is done:
The Hit Hunter® cAMP Assay from DiscoverX was used to determine the EC50 activity of compound A, BAF-312 and fingolimod on S1P1. The compounds were tested in assay medium containing 0.5% FBS.
On the technique in general: Changes in cAMP serve as a functional read-out for many G protein-coupled receptors.

Where [6] appears, read: single experiments (footnote), read-out: EC50, internalisation assay, values of the 2 separate experiments.
Where [7] appears, read: starred values are means of 2 separate experiments, read-out: EC50, Internalization, CHO.

Several values for one entry are separate records, joined by “and”; a condition that tells them apart may be missing. Identical values can stand only once.

T1 sequence (P21453 whole entry): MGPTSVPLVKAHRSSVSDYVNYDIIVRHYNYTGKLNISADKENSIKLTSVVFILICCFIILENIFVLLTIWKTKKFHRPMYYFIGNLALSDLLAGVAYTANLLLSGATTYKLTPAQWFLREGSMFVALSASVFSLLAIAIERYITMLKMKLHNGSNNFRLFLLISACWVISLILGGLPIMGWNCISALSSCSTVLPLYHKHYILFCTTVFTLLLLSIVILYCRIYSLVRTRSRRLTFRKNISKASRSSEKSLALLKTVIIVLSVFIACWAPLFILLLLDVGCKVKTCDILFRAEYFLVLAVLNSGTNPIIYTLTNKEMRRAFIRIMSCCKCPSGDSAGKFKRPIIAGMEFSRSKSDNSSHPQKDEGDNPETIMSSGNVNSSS
S1P3, sequence (Q99500 whole entry): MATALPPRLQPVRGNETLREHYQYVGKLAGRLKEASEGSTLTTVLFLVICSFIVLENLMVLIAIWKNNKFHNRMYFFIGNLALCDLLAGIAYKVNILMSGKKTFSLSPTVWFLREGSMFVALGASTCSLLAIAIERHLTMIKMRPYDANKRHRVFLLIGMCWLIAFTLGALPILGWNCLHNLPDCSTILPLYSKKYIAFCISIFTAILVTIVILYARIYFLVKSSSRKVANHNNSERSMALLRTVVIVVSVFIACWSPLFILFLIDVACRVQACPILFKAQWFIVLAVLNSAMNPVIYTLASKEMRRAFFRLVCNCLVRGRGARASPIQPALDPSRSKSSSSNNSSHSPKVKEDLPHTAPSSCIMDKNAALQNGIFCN

For `CCc1cc(/C(C)=N/OCc2ccc(C3CCCCC3)c(C(F)(F)F)c2)ccc1CN1CC(C(=O)O)C1` [BAF-312], the half-maximal effective concentration (EC50) at S1P1 [1] is 29 nM; on S1P3, > 10000 nM; on S1P4, 2100 nM; at S1P1 [3], 0.21 nM; at S1P1 [4] (setting [6]), < 0.5 nM and 0.67 nM; on S1P1 [4] (setting [7]), < 0.59 nM. The same compound came in with a half-maximal effective concentration (EC50) at S1P1 [5] of 0.47 nM. In addition, the “AKI protection (FIG. 3-D)” value in the assay with Fischer rats is recorded as “partial AKI protection”. Also, the “Reduction in serum creatinine” value in the assay with Fischer rats (doses up to 30 mg/kg p.o.) was ≤ 40%. Moreover, the “TNFα-induced over-expression of adhesion molecules” value in assay [2] is “unlike BAF-312, reduced TNFα-induced over-expression”.

With `Cc1cc(-c2nc3cnc(Oc4cccc(Cl)c4)nc3o2)cc(C)c1OCC(=O)O` [Compound A, {4-[5-(3-chloro-phenoxy)-oxazolo[5,4-d]pyrimidin-2-yl]-2,6-dimethyl-phenoxy}-acetic acid], the EC50 is 86 nM at S1P1 [1]; > 10000 nM on S1P3; 2500 nM at S1P4; 172 nM on S1P1 [3]; 160 nM and 266 nM on S1P1 [4] (setting [6]); 213 nM on S1P1 [4] (setting [7]). Besides, the half-maximal effective concentration (EC50) at S1P1 [5] stood at 22.6 nM. For the same compound, the “Albumin extravasation (cortical albumin, western blot)” value in the assay on Fischer rats (3 mg/kg p.o.) is “preventing albumin extravasation”. Further, the Tachyphylaxis entry in the assay on Fischer rats (3 mg/kg p.o. BID for 5 days vs single administration) was “no sign of tachyphylaxis”. For the same compound, the “Effect on serum creatinine, dose dependence and significance” value in the assay with Fischer rats (1 and 3 mg/kg p.o.) was “dose-dependent and statistically significant”. Further, the “AKI protection (FIG. 3-D)” value with Fischer rats was “full AKI protection”. Besides, the “Reduction of severity of AKI (limiting the rise of serum creatinine)” value in the assay on Fischer rats (p.o. 1 hour before occlusion, 24 h reperfusion) is 85-90%. Moreover, the “Capillaries (histological analysis)” value in the assay with Fischer rats (rat, in vivo) is “preserving capillaries”. Further, the Macrophages infiltration result in the assay with Fischer rats (rat, in vivo) is reported as “reduced macrophages infiltration”. Moreover, in the assay on Fischer rats (rat, in vivo), the “Renal HSP70 protein” value is given as “increased renal HSP70 protein”. In addition, the “Renal proximal tubule necrosis” value with Fischer rats (rat, in vivo) was “protected renal proximal tubules from necrosis”. Besides, the “TNFα-induced over-expression of adhesion molecules” value in assay [2] is “reduced TNFα-induced over-expression of adhesion molecules”.
